Tests used:
[1] = tested on: Mouse lung epithelial (C10) cells; experiment: NO/S-nitrosothiol content of cell lysates by chemiluminescence; assay type: cell-based; conditions: 1 mM GSNO, about one hour
Protocol: A line of spontaneously transformed mouse lung alveolar type II epithelial cells (C10) was used in some experiments, as described below. […] In experiments involving microscopic analysis, the cells were grown on glass cover slips. At about one hour prior to exposure to a test agent, the medium was switched to phenol red free DMEM/F12 containing 0.5% FBS. Some cells were exposed to S-nitroso-glutathione (GSNO) or S-nitroso-N-acetyl penicillamine (SNAP) for about 1 hour, in the presence of an equimolar concentration of freshly prepared L-cysteine. To monitor S-nitrosylation in response to NOS2 activation, the cells were treated with 10 ng/ml TNF alpha (TNFα) and 100 U/ml interferon gamma (IFNγ), for about 24 hours. […] S-nitrosothiols were detected in cell lysates or immunoprecipitated protein by chemiluminescence, using a nitric oxide analyzer (Ionics, Boulder, Colo.). […] In order to eliminate the contribution of nitrites to the observed photoelectric signal, the cell lysates were incubated with a nitrite quencher, sulfanilamide, and assessed the sulfanilamide resistant NO signal by chemiluminescence. Under these experimental conditions, employing 12 micrograms of protein, S-nitrosthiol was not detected in the sham controls (<5 pmol), but a sulfamilamide-resistant NO signal was detected in lysates from cells treated with GSNO.

C10 cells = experiment: In situ detection of S-nitrosylated proteins in intact cells (biotin derivatization, streptavidin-FITC, confocal microscopy); assay type: cell-based, mouse; conditions: 1 mM, 1 hour
Protocol: A line of spontaneously transformed mouse lung alveolar type II epithelial cells (C10) was used in some experiments, as described below. C10 cells were cultured in CMRL1066 medium containing 10% fetal bovine serum (FBS, GIBCO). In experiments involving microscopic analysis, the cells were grown on glass cover slips. At about one hour prior to exposure to a test agent, the medium was switched to phenol red free DMEM/F12 containing 0.5% FBS. Some cells were exposed to S-nitroso-glutathione (GSNO) or S-nitroso-N-acetyl penicillamine (SNAP) for about 1 hour, in the presence of an equimolar concentration of freshly prepared L-cysteine. To monitor S-nitrosylation in response to NOS2 activation, the cells were treated with 10 ng/ml TNF alpha (TNFα) and 100 U/ml interferon gamma (IFNγ), for about 24 hours. Incubation with L-N-monomethyl arginine (L-NMMA) for about 16 hours was used to inhibit endogenous NO production and D-NMMA (D-N-monomethyl arginine) was used as a control. Nuclear export was blocked by leptomycin B (5 ng/ml, exposure for about 12 hours). All experiments were performed in duplicate and were repeated at least three times.
To evaluate the localization of S-nitrosylated proteins in intact cells, the biotin derivatization method described above was used in combination with fluorophore labeling and visualized using confocal microscopy. Cells grown on cover slips were rinsed with PBS containing 0.1 mM EDTA and 0.01 mM neocuproine, and fixed in 4% PFA (paraformaldehyde) for 20 minutes at RT. The cells were permeabilized, and protein SH groups were blocked using HEN buffer containing 2.5% SDS, 0.5% CHAPS, and 20 mM MMTS (methylmethanethiosulfonate) for 20 min at 55° C. with constant shaking. After removal of MMTS, the cells were incubated with 1 mM sodium ascorbate and 0.4 mM biotin-HPDP (N-[6-(biotinamido)hexyl]-3′-(2′-pyridyldithio)propionamide) for about an hour at RT, and the cover slips were then incubated overnight with streptavidin-FITC at 4° C. Blocking was performed using 20 mM NEM for 30 minutes at 4° C., followed by incubation with 0.05 mM MPB and 1 mM sodium ascorbate for 1 hour at RT. The nuclei were stained with 10 microgram/ml PI (propidium iodide) for 30 minutes at RT. The cells were analyzed by confocal microscopy (magnification 40×) using an Olympus BX50 microscope coupled to a Bio-Rad (Hercules Calif.) MRC 1024 confocal scanning laser microscope system. Control experiments were also performed in which blocking of SH groups was omitted, or in which 100 micromolar HgCl2 was added prior to blocking of SH groups with MMTS or NEM. To assess the contribution of endogenous biotinylated proteins, the biotin-label was omitted in some control cover slips. All manipulations were performed in the dark. […]

lungs of Balb/c mice = experiment: Detection of S-nitrosylated proteins in frozen lung sections after intratracheal administration; assay type: in vivo, mouse; conditions: 50 microliters of 10 mM intratracheally, about 2 hours, versus PBS
RanGTPase [2] = target: T1, RanGTPase (Mus musculus, UniProt P62827); experiment: SNO content of immunoprecipitated RanGTPase by chemiluminescence; assay type: cell-based; conditions: 1 mM, about 1 hour
T1 construct: Ran was immunoprecipitated from equivalent amounts of total cell lysates; endogenous in cells; host or cells: C10 mouse lung alveolar type II epithelial cells
Protocol: S-nitrosothiols were detected in cell lysates or immunoprecipitated protein by chemiluminescence, using a nitric oxide analyzer (Ionics, Boulder, Colo.). Cell lysates were incubated for about 15 minutes in the presence or absence of sulfanilamide (0.5%).
Ran was immunoprecipitated from equivalent amounts of total cell lysates, using a Ran goat polyclonal IgG (Santa Cruz) and protein G-agarose beads. The immunoprecipitates were washed three times with HEN buffer (25 mM HEPES, pH 7.7, 0.1 mM EDTA, 0.01 mM neocuproine) and the immunocomplexes were injected into the purge vessel for NO analysis.
Chemiluminescence was first performed to detect the S-nitrosylation of immunoprecipitated RanGTPase. […] In these experiments, the cells were treated with 1 mM GSNO for about 1 hour, washed, and Ran was immunoprecipitated form the total lysate using a Ran-specific antibody and protein G agarose beads. The immunocomplexes were washed three times and directly injected into the purge vessel using techniques similar to those described in Example 1. As a control, pre-immune IgG was used instead of Ran antibody. Western blot analysis confirmed the presence of RanGTPase in the immunocomplexes (FIG. 7B).

RanGTPase [3] = target: T1, RanGTPase; experiment: Biotin derivatization of RanGTPase, immunoprecipitation, Western blot with streptavidin-HRP; assay type: cell-based; conditions: after treatment of cells, versus basal
Protocol: Biotin labeling of S-nitrosylated proteins in cell lysates proceeded as follows. At selected time points, cells were rinsed with PBS containing 0.1 mM EDTA and 0.01 mM neocuproine and lysed in HEN buffer containing 0.1% SDS, 0.5% CHAPS, and 20 mM NEM (N-ethylmaleimide) by rocking for 30 minutes at 4° C. The lysates were centrifuged at 14,000 g at 4° C. for about 10 minutes, and the excess NEM used to block sulfhydryl groups (SH) was removed by protein precipitation with acetone. The pellets were resuspended in HEN buffer containing 1% SDS (HENS), and the S-nitrosothiols were reduced and biotinylated by the simultaneous addition of 10 mM sodium ascorbate and 0.05 mM of the sulfhydryl-specific biotinylating agent, MPB (N-(3-maleimidylpropionyl) biocytin, Molecular Probes), for 1 hour at room temperature (RT, about 25° C.). […] Biotinylation of Ran was detected using streptavidin-HRP. […]
To confirm that RanGTPase itself was S-nitrosylated, a biotin derivatization approach was used, including immunoprecipitating RanGTPase and determining biotinylated RanGTPase by Western blotting using streptavidin-HRP. […] Ran was immunoprecipitated from total cell lysates, and biotinylated RanGTPase was determined by Western blotting and by peroxidase-conjugated streptavidin (FIG. 7C, upper panel). […] In the lower panel of FIG. 7C, as a loading control, Ran was detected in whole cell lysates by Western blotting.

SNO content of immunoprecipitated RanGTPase (RanGTPase [2]): increase
biotinylation of RanGTPase (RanGTPase [3]): enhanced
Structure (SMILES): N[C@@H](CCC(=O)N[C@@H](CSN=O)C(=O)NCC(=O)O)C(=O)O [GSNO, S-nitroso-glutathione]
sulfanilamide-resistant NO signal (S-nitrosothiol) in lysates ([1]; 12 micrograms of protein): detected
total NO content in lysates ([1]; versus non-treated cells): increased
biotinylation (S-nitrosylated proteins) in intact cells (C10 cells): enhanced
biotin reactivity (S-nitrosylated proteins) in lungs (lungs of Balb/c mice): markedly increased

Reference: patent US20050238734A1, “Detection of nitrosylated proteins” (University of Vermont and State Agricultural College, priority 2004, published 2005)
